In patent US8399480B2, “Hydroxymethyl pyrrolidines as beta 3 adrenergic receptor agonists” (Merck Sharp & Dohme Corp., priority 2008, dated 2013):
Read-outs that look alike come from different tables or passages of the source.

Target: T1, human β3 adrenergic receptor (Homo sapiens, UniProt P13945)
T1 construct: expressed in transfected cells; host or cells: Chinese hamster ovary (CHO) cells, stably transfected
Experiment: Functional assay: cAMP production (LANCE TR-FRET) in CHO cells stably transfected with cloned β3 adrenergic receptor
Format: cell-based
Experimental: Chinese hamster ovary (CHO) cells, stably transfected with the cloned β-adrenergic receptor (β1, β2 or β3) are harvested after 3 days of subculturing. Harvesting of cells is done with Enzyme-free Dissociation Media (Specialty Media). Cells are then counted and resuspended in assay buffer (Hank's Balanced salt solution supplemented with 5 mM HEPES, 0.1% BSA) containing a phosphodiesterase inhibitor (IBMX, 0.6 mM). The reaction is initiated by mixing 6,000 cells in 6 μL with 6 μL Alexa Fluor labeled cAMP antibody (LANCE™ kit) which is then added to an assay well containing 12 μL of compound (diluted in assay buffer to 2× final concentration). The reaction proceeds for 30 min at room temperature and is terminated by the addition of 24 μL detection buffer (LANCE™ kit). The assay plate is then incubated for 1 h at room temperature and time-resolved fluorescence measured on a Perkin Elmer Envision reader or equivalent. The unknown cAMP level is determined by comparing fluorescence levels to a cAMP standard curve.
The non-selective, full agonist β-adrenergic ligand isoproterenol is used at all three receptors to determine maximal stimulation. […] Data are analyzed using Microsoft Excel and Graphpad Prism or an internally developed data analysis software package.

[1] = Table 5, read-out: Human β3 Functional

T1 sequence (P13945 whole entry): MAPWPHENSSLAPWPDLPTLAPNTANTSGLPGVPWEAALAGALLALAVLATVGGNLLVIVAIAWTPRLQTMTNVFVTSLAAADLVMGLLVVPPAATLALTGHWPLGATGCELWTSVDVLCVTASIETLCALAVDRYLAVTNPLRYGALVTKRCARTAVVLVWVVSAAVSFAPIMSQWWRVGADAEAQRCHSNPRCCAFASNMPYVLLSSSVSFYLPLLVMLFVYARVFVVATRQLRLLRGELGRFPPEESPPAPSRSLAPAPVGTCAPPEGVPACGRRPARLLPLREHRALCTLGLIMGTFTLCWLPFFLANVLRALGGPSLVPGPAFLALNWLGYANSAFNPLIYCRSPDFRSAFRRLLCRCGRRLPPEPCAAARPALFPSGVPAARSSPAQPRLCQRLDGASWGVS

| SMILES | EC50 (given as a range, cAMP, CHO cells, read-out: human β3 functional activity) [nM] | EC50 [1] [nM] |
| --- | --- | --- |
| Nc1nc2c(s1)CCC2C(=O)Nc1ccc(C[C@@H]2CC[C@H]([C@H](O)c3ccccc3)N2)cc1 (single isomer, unassigned) [Example 4] | < 1 |  |
| O=C(Nc1ccc(C[C@@H]2CC[C@H]([C@H](O)c3ccccc3)N2)cc1)C1CCc2ccccc2C1 (single isomer, unassigned) [Example 108] |  | 101 to 1000 |
| O=C(Nc1ccc(C[C@@H]2CC[C@H]([C@H](O)c3ccccc3)N2)cc1)C1CCc2ccccc2C1 (single isomer, unassigned) [Example 109] |  | 1000 to 3000 |
| O=C(Nc1ccc(C[C@@H]2CC[C@H]([C@H](O)c3ccccc3)N2)cc1)C1CCc2ccccc21 (single isomer, unassigned) [Example 110] |  | 11 to 100 |
| O=C(Nc1ccc(C[C@@H]2CC[C@H]([C@H](O)c3ccccc3)N2)cc1)C1CCc2ccccc21 (single isomer, unassigned) [Example 111] |  | 101 to 1000 |
| O=C(Nc1ccc(C[C@@H]2CC[C@H]([C@H](O)c3ccccc3)N2)cc1)C1CCCc2ccccc21 (single isomer, unassigned) [Example 112] |  | 11 to 100 |
| O=C(Nc1ccc(C[C@@H]2CC[C@H]([C@H](O)c3ccccc3)N2)cc1)C1CCCc2ccccc21 (single isomer, unassigned) [Example 113] |  | 101 to 1000 |
| Nc1nc2c(s1)CCCC2C(=O)Nc1ccc(C[C@@H]2CC[C@H]([C@H](O)c3ccccc3)N2)cc1 (single isomer, unassigned) [Example 116] |  | 1 to 10 |
| Nc1nc2c(s1)CCCC2C(=O)Nc1ccc(C[C@@H]2CC[C@H]([C@H](O)c3ccccc3)N2)cc1 (single isomer, unassigned) [Example 117] |  | < 1 |
| Cc1nc2c(s1)CCC2C(=O)Nc1ccc(C[C@@H]2CC[C@H]([C@H](O)c3ccccc3)N2)cc1 (single isomer, unassigned) [Example 118] |  | 1 to 10 |
| Cc1nc2c(s1)CCC2C(=O)Nc1ccc(C[C@@H]2CC[C@H]([C@H](O)c3ccccc3)N2)cc1 (single isomer, unassigned) [Example 119] |  | < 1 |
| Cc1nc2c(s1)CCCC2C(=O)Nc1ccc(C[C@@H]2CC[C@H]([C@H](O)c3ccccc3)N2)cc1 (single isomer, unassigned) [Example 120] |  | 11 to 100 |
| Cc1nc2c(s1)CCCC2C(=O)Nc1ccc(C[C@@H]2CC[C@H]([C@H](O)c3ccccc3)N2)cc1 (single isomer, unassigned) [Example 121] |  | 1 to 10 |
| O=C(Nc1ccc(C[C@@H]2CC[C@H]([C@H](O)c3ccccc3)N2)cc1)C1CCc2sc(-c3ccc(F)cc3)nc21 (single isomer, unassigned) [Example 122] |  | 101 to 1000 |
| O=C(Nc1ccc(C[C@@H]2CC[C@H]([C@H](O)c3ccccc3)N2)cc1)C1CCc2sc(-c3ccc(F)cc3)nc21 (single isomer, unassigned) [Example 123] |  | 101 to 1000 |
| Cc1nnc2n1CCC2C(=O)Nc1ccc(C[C@@H]2CC[C@H]([C@H](O)c3ccccc3)N2)cc1 (single isomer, unassigned) [Example 124] |  | 1 to 10 |
| Cc1nnc2n1CCC2C(=O)Nc1ccc(C[C@@H]2CC[C@H]([C@H](O)c3ccccc3)N2)cc1 (single isomer, unassigned) [Example 125] |  | 1 to 10 |
| Cc1nnc2n1C(C(=O)Nc1ccc(C[C@@H]3CC[C@H]([C@H](O)c4ccccc4)N3)cc1)CC2 (single isomer, unassigned) [Example 126] |  | 11 to 100 |
| Cc1nnc2n1C(C(=O)Nc1ccc(C[C@@H]3CC[C@H]([C@H](O)c4ccccc4)N3)cc1)CC2 (single isomer, unassigned) [Example 127] |  | 101 to 1000 |
| O=C(Nc1ccc(C[C@@H]2CC[C@H]([C@H](O)c3ccccc3)N2)cc1)C1CCc2ncnn21 (single isomer, unassigned) [Example 128] |  | 11 to 100 |

| SMILES | EC50 (given as a range, cAMP, CHO cells, read-out: human β3 functional activity) [nM] | EC50 [1] [nM] |
| --- | --- | --- |
| O=C(Nc1ccc(C[C@@H]2CC[C@H]([C@H](O)c3ccccc3)N2)cc1)C1CCc2ncnn21 (single isomer, unassigned) [Example 129] |  | 11 to 100 |
| O=C(Nc1ccc(C[C@@H]2CC[C@H]([C@H](O)c3ccccc3)N2)cc1)C1CCn2nnnc21 (single isomer, unassigned) [Example 130] |  | 1 to 10 |
| O=C(Nc1ccc(C[C@@H]2CC[C@H]([C@H](O)c3ccccc3)N2)cc1)C1CCn2nnnc21 (single isomer, unassigned) [Example 131] |  | 1 to 10 |
| O=C(Nc1ccc(C[C@@H]2CC[C@H]([C@H](O)c3ccccc3)N2)cc1)C1CCc2cccnc21 (single isomer, unassigned) [Example 132] |  | < 1 |
| O=C(Nc1ccc(C[C@@H]2CC[C@H]([C@H](O)c3ccccc3)N2)cc1)C1CCc2cccnc21 (single isomer, unassigned) [Example 133] |  | < 1 |
| O=C(Nc1ccc(C[C@@H]2CC[C@H]([C@H](O)c3ccccc3)N2)cc1)C1CCc2ccc(=O)[nH]c21 (single isomer, unassigned) [Example 134] |  | 101 to 1000 |
| O=C(Nc1ccc(C[C@@H]2CC[C@H]([C@H](O)c3ccccc3)N2)cc1)C1CCc2ccc(=O)[nH]c21 (single isomer, unassigned) [Example 135] |  | 101 to 1000 |
| O=C(Nc1ccc(C[C@@H]2CC[C@H]([C@H](O)c3ccccc3)N2)cc1)C1CCc2cn[nH]c21 (single isomer, unassigned) [Example 136] |  | 11 to 100 |
| O=C(Nc1ccc(C[C@@H]2CC[C@H]([C@H](O)c3ccccc3)N2)cc1)C1CCc2cn[nH]c21 (single isomer, unassigned) [Example 137] |  | 11 to 100 |
| Cc1n[nH]c2c1CCC2C(=O)Nc1ccc(C[C@@H]2CC[C@H]([C@H](O)c3ccccc3)N2)cc1 (single isomer, unassigned) [Example 138] |  | 11 to 100 |
| Cc1n[nH]c2c1CCC2C(=O)Nc1ccc(C[C@@H]2CC[C@H]([C@H](O)c3ccccc3)N2)cc1 (single isomer, unassigned) [Example 139] |  | 1 to 10 |
| Cc1noc2c1CCC2C(=O)Nc1ccc(C[C@@H]2CC[C@H]([C@H](O)c3ccccc3)N2)cc1 (single isomer, unassigned) [Example 140] |  | 11 to 100 |
| Cc1noc2c1CCC2C(=O)Nc1ccc(C[C@@H]2CC[C@H]([C@H](O)c3ccccc3)N2)cc1 (single isomer, unassigned) [Example 141] |  | 1 to 10 |
| O=C(O)c1nc2c(s1)CCC2C(=O)Nc1ccc(C[C@@H]2CC[C@H]([C@H](O)c3ccccc3)N2)cc1 (single isomer, unassigned) [Example 142] |  | 101 to 1000 |
| O=C(O)c1nc2c(s1)CCC2C(=O)Nc1ccc(C[C@@H]2CC[C@H]([C@H](O)c3ccccc3)N2)cc1 (single isomer, unassigned) [Example 143] |  | 11 to 100 |
| O=C(Nc1ccc(C[C@@H]2CC[C@H]([C@H](O)c3ccccc3)N2)cc1)C1CCc2sc(Br)nc21 (single isomer, unassigned) [Example 144] |  | 1 to 10 |
| O=C(Nc1ccc(C[C@@H]2CC[C@H]([C@H](O)c3ccccc3)N2)cc1)C1CCc2sc(Br)nc21 (single isomer, unassigned) [Example 145] |  | < 1 |
| O=C(Nc1ccc(C[C@@H]2CC[C@H]([C@H](O)c3ccccc3)N2)cc1)C1CCc2sc(F)nc21 (single isomer, unassigned) [Example 146] |  | < 1 |
| O=C(Nc1ccc(C[C@@H]2CC[C@H]([C@H](O)c3ccccc3)N2)cc1)C1CCc2sc(F)nc21 (single isomer, unassigned) [Example 147] |  | < 1 |
